Measured values taken from patent US12286403B2, “Formulated and/or co-formulated liposome compositions containing IDO antagonist prodrugs useful in the treatment of cancer and methods thereof” (Nammi Therapeutics, Inc., priority 2019, dated 2025).

Target: T1, IDO-1 (Homo sapiens, UniProt P14902)
T1 construct: expressed in transfected cells; host or cells: HEK293 (hIDO1-HEK293 recombinant cells)
Assay: IDO-1 activity by kynurenine levels in hIDO1-HEK293 recombinant cells
Type: cell-based
Settings: 10 uM, 24 hours
Experimental: IDO-1 activity was measured indirectly using kynurenine levels using the following protocols. Briefly, hIDO1-HEK293 recombinant cells were plated overnight. The following day the cells were left untreated or treated with 10 uM of ID3, ID3-SA or LNP-ID3-SA for twenty-four (24) hours. The IDO-1 activity was measured by indirect measurement of kynurenine levels by analyzing absorption at 480 nm using IDO1 Cellular Activity QuickDetect™ kit (PBSBioscience, San Diego, CA).

T1 sequence (P14902 whole entry): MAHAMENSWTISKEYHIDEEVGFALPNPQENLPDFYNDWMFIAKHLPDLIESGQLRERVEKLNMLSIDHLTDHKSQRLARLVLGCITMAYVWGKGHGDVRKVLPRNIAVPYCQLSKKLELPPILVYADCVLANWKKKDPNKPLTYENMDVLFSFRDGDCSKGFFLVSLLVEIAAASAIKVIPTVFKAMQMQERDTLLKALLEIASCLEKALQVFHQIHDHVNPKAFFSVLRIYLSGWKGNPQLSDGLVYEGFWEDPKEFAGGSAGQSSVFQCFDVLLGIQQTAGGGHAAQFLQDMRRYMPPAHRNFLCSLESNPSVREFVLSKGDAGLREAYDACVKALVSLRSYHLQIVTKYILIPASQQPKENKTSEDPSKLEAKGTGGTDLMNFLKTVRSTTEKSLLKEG

- IDO-1 activity (kynurenine levels, absorption at 480 nm): inhibited IDO-1 activity
Compound: CCCCCCCCCCCCCCCCCC(=O)OCOC(=O)N(C(=O)[C@H](C)[C@H]1CC[C@@H](c2ccnc3ccc(F)cc32)CC1)c1ccc(Cl)cc1 [ID3-SA]
